The record followed here is US8663646B2, “P53 peptide vaccine” (priority 2007, dated 2014).

Assay [1] addresses T1, HLA-A*0101 (Homo sapiens, UniProt P04439, A114D/A174V/A182V/D101N/D185E/E176A/E190D/L180R/Q94H/R68K/S129P/T187R/V100A/V91M/W191G).
T1 construct: B-cell lines used are: CAA (A*0101), EKR (A*0301), BVR (A*1101), VIJF (A*2401); endogenous in cells; host or cells: B-cell line CAA
The experiment in a line: Stability of peptide-HLA complex, binding at 4° C. and 20° C., HLA-A*0101. The note with it: for HLA binding Stability (Table 5): HLA type A1; for Peptide Binding Stability: HLA-A*0101, IC50 at 20° C. vs 4° C.

Assay [2] has as its target T2, HLA-A*0301 (Homo sapiens, UniProt P04439).
T2 construct: B-cell lines used are: CAA (A*0101), EKR (A*0301), BVR (A*1101), VIJF (A*2401); endogenous in cells; host or cells: B-cell line EKR
The assay is described as follows: Stability of peptide-HLA complex, binding at 4° C. and 20° C., HLA-A*0301. The gist of the method: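 Competition binding used B-cell lines CAA (A*0101), EKR (A*0301), BVR (A*1101) and VIJF (A*2401) against fluorescein-labelled reference peptides. IC50 is the peptide concentration inhibiting 50% of reference binding. Binding was run at 4 °C and 20 °C with IC50 determined at each; complexes losing >50% within 2 hours were deemed unstable.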

Assay [3] deals with HLA-A*2401. The experiment in a line: Competition based cellular binding assay, HLA-A*2401 (B-cell line VIJF). The arrangement: species or system human. The note with it: HLA-A*2401, IC50 category.
The subject of assay [4] is proteasome. The experiment in a line: Proteasome processing, summarised over proteasome types (Table 5). It counts as biochemical. Conditions: 30 residue long precursor peptides. On the procedure:
(§1) In the context of the invention, “being inefficiently processed by a proteasome” preferably means that within the first hour of digestion by a proteasome less than 1% of total digested peptide is found. The processing by a proteasome is preferably assessed by incubating a purified proteasome, more preferably a human proteasome with a peptide comprising the potential CTL epitope (30 amino acid length approximately) in a proteasome digestion buffer during at least one hour at 37° C. The reaction is subsequently stopped by adding trifluoroacetic acid. Analysis of the digested peptides is performed with electrospray ionization mass spectrometry (see example 1). Even more preferably, the human proteasome is an immunoproteasome from B-LCL JY cells (Kessler J H et al. 2001).
(§2) 20S immuno-proteasomes were purified from a mouse B-cell line (RMA) and a human B-LCL cell line (JY) and 20S household proteasomes were purified from human tumor cell line (HeLa) as described (Kessler J H et al 2001). To assess kinetics, digestions were performed with different incubation periods as indicated. Briefly, peptides containing the (potential) CTL epitopes (30 mers, 20 μg) were incubated with 1 μg of purified proteasome at 37° C. for 1 h, 4 h and 24 h in 300 μl proteasome digestion buffer, trifluoroacetic acid (30 μl) was added to stop the digestion and samples were stored at −20° C. before mass spectrometric analysis. Electrospray ionization mass spectrometry was performed on a hybrid quadrupole time-of-flight mass spectromter, a Q-TOF (Micromass), equipped with an on-line nanoelectrospray interface with an approximate flow rate of […] as described (Kessler J H et al 2001). The peaks in the mass spectrum were searched in the digested precursor peptide using the Biolynx/proteins software (Micromass) supplied with the mass spectrometer. The intensity of the peaks in the mass spectra was used to establish the relative amounts of peptides generated after proteasome digestion. The relative amounts of the peptides are given as a percentage of the total amount of peptide digested by the proteasome at the indicated incubation time. Major cleavage sites are defined as more than >1% of total digested peptide within the first hour.

Assay [5] deals with HLA-A*2401. The assay is described as follows: Stability of peptide-HLA complex, binding at 4° C. and 20° C., HLA-A*2401. More on the design: species or system human. The note with it: HLA-A*2401; IC50 at 20° C. vs 4° C. Here is the method:
Stability of other peptide-HLA complexes was preferably determined as follows. […] Peptides of >50% of the initial complexes was lost within 2 hours were considered unstable. […] The rest was designated as unstable peptide binding.
Peptides 8-11 residues in length were selected based on typical anchor residues for HLA-A*0101, A*0301, A*1101 and HLA-A*2401 (Rammensee H G et al). The capacity of peptides to bind was tested in a competition based cellular binding assay as previously described (van der Burg S H et al 1995). FL-labeled reference peptides were synthesized as Cys-derivative (van der Burg S H et al 1995). Fluorescence labeled reference peptides used were: YLEPAC(FL)AK (SEQ ID NO: 87) (HLA-A*0101) and KVFPC(FL)ALINK (SEQ ID NO: 88) (HLA-A*1101) (Sette A et al), KVFPC(FL)ALINK (SEQ ID NO: 89) (HLAA*0301) (van der Burg S H et al 1995) and RYLKC(FL)QQLL (SEQ ID NO: 90) (A*2401) (Dai L C et al). B-cell lines used are: CAA (A*0101), EKR (A*0301), BVR (A*1101), VIJF (A*2401). The relative binding capacity of the peptides is expressed as the peptide concentration to inhibit 50% (1050) of the binding of the reference peptide. […] Peptide stabilization for HLA-A*0201 was performed as previously described (van der Burg S H et al, 1996). Peptides of >50% of the initial complexes was lost within 2 hours were considered unstable. Stability of other peptide-HLA complexes was determined as follows. Peptide binding was performed at 4° C. and 20° C. and 1050 were determined. […] The rest was designated as unstable peptide binding.

Assay [6] deals with HLA-A*0201 (Homo sapiens, UniProt P04439, D140Y/D185E/D98H/E176V/E277Q/G131W/G231S/I119V/I121R/I166T/I218V/L300P/L318F/N151K/N90K/P208A/P217A/Q86G/Q94H/R138H/R169H/T345S). The assay is described as follows: Peptide stabilization for HLA-A*0201. It counts as binding. Conditions: for Peptide Binding Stability: HLA-A*0201, p53 peptides.
The target in assay [7] is T3, 20S household proteasomes from human tumor cell line (HeLa) (Homo sapiens, UniProt P28072+P28074+Q99436).
T3 construct: 20S household proteasomes were purified from human tumor cell line (HeLa); endogenous in cells; host or cells: HeLa cells; 20S proteasome purified from them
The experiment in a line: In vitro proteasome mediated digestion of 30-mers, mass spectrometry, household proteasome HeLa. The format is biochemical. The note with it: 30 residue long precursor peptides. Here is the method: as §1, §2

Assay [8] has as its target T4, 20S immuno-proteasomes from human B-LCL cell line (JY) (Homo sapiens, UniProt P28062+P28065+P40306).
T4 construct: purified from a mouse B-cell line (RMA) and a human B-LCL cell line (JY); endogenous in cells; host or cells: B-LCL JY cells; 20S proteasome purified from them
The assay is described as follows: In vitro proteasome mediated digestion of 30-mers, mass spectrometry, immunoproteasome JY. The format is biochemical. Conditions: 30 residue long precursor peptides. The gist of the method:
(§3)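 30-mer peptides (20 μg) digested with 1 μg purified 20S proteasome (JY or RMA immunoproteasome, HeLa household proteasome) at 37° C for 1, 4 and 24 h, stopped with TFA. Nano-ESI Q-TOF MS; fragments quantified by peak intensity as percent of total digested peptide per time point; major cleavage site >1% within first hour.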

In assay [9] the target is T5, 20S immuno-proteasomes from mouse B-cell line (RMA) (Mus musculus, UniProt O35955+P28063+P28076).
T5 construct: 20S immuno-proteasomes were purified from a mouse B-cell line (RMA); endogenous in cells; host or cells: RMA cells; 20S proteasome purified from them
The assay is described as follows: In vitro proteasome mediated digestion of 30-mers, mass spectrometry, immunoproteasome RMA. The format is biochemical. Conditions: 30 residue long precursor peptides. The gist of the method:
as §3

Assay [10] addresses T1, HLA-A*0101. The assay is described as follows: Competition based cellular binding assay, HLA-A*0101 (B-cell line CAA).

The structures appear in SMILES notation. Read-outs that look alike come from different tables or passages of the source.

Turning to `CC(C)[C@H](NC(=O)[C@H](CO)NC(=O)[C@H](CCCCN)NC(=O)[C@H](C)NC(=O)[C@@H](NC(=O)CN)[C@@H](C)O)C(=O)N[C@H](C(=O)N[C@@H](CS)C(=O)N[C@H](C(=O)N[C@@H](Cc1ccc(O)cc1)C(=O)O)[C@@H](C)O)[C@@H](C)O` [p53 117-126], the “HLA binding Stability (Table 5)” value in [1] is “+ (Stable peptides displayed IC50 at 20 °C that deviated <2 times of the IC50 at 4° C.)”; in [2] (HLA type A3), “− (The rest was designated as unstable peptide binding.)”. In addition, the “Peptide Binding Stability” value in [1] was “+ (Stable peptides displayed IC50 at 20 °C that deviated <2 times of the IC50 at 4° C.)”; in assay [2] (HLA-A*0301, IC50 at 20° C. vs 4° C.) it was “− (The rest was designated as unstable peptide binding.)”.
Regarding `CSCC[C@H](NC(=O)[C@H](CCCCN)NC(=O)[C@H](CC(N)=O)NC(=O)[C@H](CC(C)C)NC(=O)[C@H](C)NC(=O)[C@@H]1CCCN1C(=O)[C@H](CO)NC(=O)[C@H](Cc1ccc(O)cc1)NC(=O)[C@@H](N)[C@@H](C)O)C(=O)N[C@@H](Cc1ccccc1)C(=O)O` [p53 125-134], the “Peptide Binding Affinity” value in [3] was “high”. The IC50 in assay [3] (read-out: Peptide Binding Affinity) is less than 5 µM. Besides, the “generation / processing by household and immunoproteasomes, in words” value (from here on “generation / processing”) in assay [4] is reported as “not/inefficiently processed”. Moreover, the “Peptide Binding Stability” value in [5] was “+ (Stable peptides displayed IC50 at 20 °C that deviated <2 times of the IC50 at 4° C.)”.
Take `CC(C)[C@H](NC(=O)[C@H](CCCNC(=N)N)NC(=O)[C@@H](NC(=O)CNC(=O)[C@@H]1CCCN1C(=O)[C@@H]1CCCN1C(=O)[C@@H]1CCCN1C(=O)[C@@H](NC(=O)[C@@H](N)CO)[C@@H](C)O)[C@@H](C)O)C(=O)O` [p53 149-157]: in assay [6], the “capacity to form stable peptide-HLA-A*0201 complexes, in words” value is listed as “weak” and the “Peptide Binding Stability” value is recorded as less than 2 h. For the same compound, the “HLA binding Stability (Table 5)” value in [6] (HLA type A2, class symbol) was “− (Peptides of >50% of the initial complexes was lost within 2 hours were considered unstable)”. Further, the “Proteasomal Cleavage of C-terminus, HH (HeLa)” value in assay [7] is recorded as “+ (Major cleavage sites are defined as more than >1% of total digested peptide within the first hour)”. In addition, in assay [4], the “generation / processing” value is on record as “efficiently generated”. In assay [8], the “Proteasomal Cleavage of C-terminus, IP (JY)” value is reported as “+ (Major cleavage sites are defined as more than >1% of total digested peptide within the first hour)”. The “Proteasomal Cleavage of C-terminus, IP (RMA)” value in assay [9] was “+ (Major cleavage sites are defined as more than >1% of total digested peptide within the first hour)”.
Consider `CC[C@H](C)[C@H](NC(=O)[C@H](CC(C)C)NC(=O)[C@H](Cc1c[nH]cn1)NC(=O)[C@H](CCC(N)=O)NC(=O)[C@@H]1CCCN1C(=O)[C@@H]1CCCN1C(=O)[C@H](C)NC(=O)[C@H](CC(C)C)NC(=O)CN)C(=O)N[C@@H](CCCNC(=N)N)C(=O)N[C@H](C(=O)O)C(C)C` [p53 187-197], for which, in assay [6], the “capacity to form stable peptide-HLA-A*0201 complexes, in words” value is listed as “forms stable peptide-HLA complexes” and the “Peptide Binding Stability” value is on record as 6 h. In addition, the “Proteasomal Cleavage of C-terminus, HH (HeLa)” value in [7] is “+ (Major cleavage sites are defined as more than >1% of total digested peptide within the first hour)”. The “generation / processing” value in assay [4] is given as “efficiently generated”. Further, the “Proteasomal Cleavage of C-terminus, IP (JY)” value in [8] is “+ (Major cleavage sites are defined as more than >1% of total digested peptide within the first hour)”. Moreover, the “Proteasomal Cleavage of C-terminus, IP (RMA)” value in assay [9] is “+ (Major cleavage sites are defined as more than >1% of total digested peptide within the first hour)”.
As to `CC(C)C[C@H](NC(=O)[C@H](CC(N)=O)NC(=O)CNC(=O)[C@H](CCC(=O)O)NC(=O)[C@@H](NC(=O)[C@@H](N)CCCNC(=N)N)C(C)C)C(=O)N[C@@H](CCCNC(=N)N)C(=O)N[C@H](C(=O)N[C@@H](CCC(=O)O)C(=O)N[C@@H](Cc1ccc(O)cc1)C(=O)O)C(C)C` [p53 196-205], in assay [1], the “HLA binding Stability (Table 5)” value is “+ (Stable peptides displayed IC50 at 20 °C that deviated <2 times of the IC50 at 4° C.)” and the “Peptide Binding Stability” value is “+ (Stable peptides displayed IC50 at 20 °C that deviated <2 times of the IC50 at 4° C.)”.
For the compound `CC[C@H](C)[C@H](NC(=O)[C@@H](NC(=O)[C@@H](NC(=O)[C@@H](N)CS)[C@@H](C)O)[C@@H](C)O)C(=O)N[C@@H](Cc1c[nH]cn1)C(=O)N[C@@H](Cc1ccc(O)cc1)C(=O)N[C@@H](CC(N)=O)C(=O)N[C@@H](Cc1ccc(O)cc1)C(=O)O` [p53 229-236], in assay [1], the “HLA binding Stability (Table 5)” value is given as “− (The rest was designated as unstable peptide binding.)” and the “Peptide Binding Stability” value is “− (The rest was designated as unstable peptide binding.)”. Besides, the IC50 in assay [10] (HLA type A1, read-out: HLA binding Affinity (Table 5)) is 15 to 50 µM. Moreover, the IC50 in assay [10] (HLA-A*0101, IC50 category, read-out: Peptide Binding Affinity) lay in the range of 5 to 15 µM.
In the case of `CC(C)C[C@H](NC(=O)[C@@H](N)CC(C)C)C(=O)NCC(=O)N[C@@H](CCCNC(=N)N)C(=O)N[C@@H](CC(N)=O)C(=O)N[C@@H](CO)C(=O)N[C@@H](Cc1ccccc1)C(=O)N[C@@H](CCC(=O)O)C(=O)N[C@H](C(=O)O)C(C)C` [p53 264-272], the “generation / processing” value in assay [4] was “not well processed”.
